# Assays:
# [1] = test system: HEK293 cells; assay: Freeze-thaw (-80° C.) cryoprotection of HEK293 cells, post-thaw attachment/viability; type: cell-based
# Protocol: For the studies detailed below, the following procedures were used for preparation of cell cultures prior to cryopreservation: Both HEK-293 and HCT-115 cells were cultured in DMEM medium supplemented with 10% calf serum or 10% fetal calf serum. Two or three days prior to initiating a cryopreservation study, cells were seeded onto 100 mm tissue culture treated dishes in the above described culture medium and placed into a humidified, 5% CO2 incubator and allowed to propagate for 2 or 3 days. Preparation of growing cultures for cryostorage was performed as follows: Medium from 100 mm dishes containing growing cultures prepared as described above was aspirated and replaced with saline containing 0.5 mM EDTA and allowed to incubate for 2-3 minutes. This material was also aspirated and replaced with saline containing 0.25% trypsin and 0.25 mM EDTA. After incubating this second mixture for an additional 3-5 minutes and observing partial detachment of cells from dishes, cells were removed by using inertial force against the dish or by using a stream of saline or base culture medium to dislodge and collect cells from the dish. Cells harvested in this manner were separated by centrifugation (100 g×3 min), resuspended in the desired cryostorage solution, dispensed into polypropylene vials, positioned in microtube racks that were placed into a −80° C. freezer. Cells were kept frozen for 24-168 hours, at which time cryovials were removed to wet ice and cells thawed and plated into appropriate tissue culture vessels, typically 6 or 12 well plates. Cells were visualized with the aid of a Nikon TE300 microscope with an attached camera to allow documentation.
# As described above, we wished to test the ability of amino acid species to serve as primary cryoprotectants per the definition provided, i.e. at concentrations at which they provided osmotic pressure sufficient to induce cell dehydration. For this purpose we prepared solutions of several amino acids, including alanine, glycine, proline, glutamate, histidine, aspartate, leucine, lysine, phenylalanine, threonine, arginine, and serine. These were standardized to 1M and adjusted to pH 7.1-pH 7.3, where possible or to maximal concentrations when 1M was above the solubility such as histidine and leucine. These solutions were used by dilution in water to test for their ability to serve as a cryoprotectant or diluted to the desired target concentration in a variety of base media including saline, and the two growth mediums described above (DMEM and OptiMeM) in the studies with three different mammalian cell lines described below described below.
# FIG. 1. […] To test this capacity against a well-established cryoprotectant from those described above, HEK293 cultures were prepared as above in one of three base cryostorage mediums as noted below each pair of photographs depicted in panel A: (a) OptiMEM culture medium (ThermoFisher), a serum free growth medium, (b) DMEM culture medium containing 10% serum, or (c) 0.3M glutamate pH 7.2. One sample was prepared in each storage medium as described (labels on the bottom of each vertical pair of photographs), and an additional sample for each was prepared with 7.5% DMSO. 23 hours after plating thawed cells, cultures were visualized with 4× (upper) and 20× objectives (lower). […] The images were also analyzed using NIH Image to count cell numbers, depicted in panel B.
# FIG. 2. […] HEK293 cells were prepared as described above in OptiMEM medium and apportioned into 4 samples containing 0 mM, 100 mM, 200 mM, or 300 mM glutamate (labels below photograph). After completing a freeze-thaw cycle, each sample was plated and visualized 23 hours after plating.
# [2] = test system: ovine pre-adipocyte cells; assay: Freeze-thaw cryoprotection of cells suspended in saline, cell yield by ImageJ (FIG. 4); type: cell-based
# [3] = test system: Cygnus monkey spermatozoa; details: at 5-10 mM; cited from earlier work
# [4] = test system: cells; details: NaCl at concentrations where glutamate acts as a CPA
# Protocol: We developed a workflow that tested cryoprotection of cells suspended in physiological saline (150 mM NaCl), overcoming the need to resuspend centrifuged cells directly in a final cryoprotection buffer. […] Thus, in these studies, trypsinized cells were centrifuged as described above, but resuspended in saline prior to diluting into a test solution. The photographs in FIG. 4A depict representative fields at 4× magnification of 6-well plates seeded with ovine pre-adipocyte cells, frozen in solutions comprised of agents and concentrations indicated to the left of each row. The cells in each field were enumerated by using ImageJ (NIH) to carryout noise reduction and thresholding before enumerating cell particles (FIG. 4B). It should be noted that dilution of the initial saline sample contributed 0.105 M NaCl concentration in addition to the agents indicated to the left. To provide a positive sample, we also tested DMSO at three concentrations (1%, 3%, and 10%). […] Therefore, we also tested binary mixtures as well as a ternary and a quaternary mixture.
# We ascertained if such synergy might also exist with other well established cryoprotectants such as betaine or trehalose. […]
# [5] = test system: HCT 115 cells; assay: Freeze-thaw cryoprotection of HCT 115 cells, crystal violet stain density (cell yield); type: cell-based; details: glutamate in OptiMEM, 96 hours growth after thaw
# Protocol: FIG. 3. Cryoprotectant activity of glutamate requires concentrations greater than 50 mM. The dose response relationship of glutamate and its ability to impart cryoprotective activity to OptiMeM prompted the question of our findings being extensible to other cell types such as HCT 115 cells (FIG. 2). Cells were prepared as described above in OptiMEM medium containing either no additions, 7.5% DMSO, 50 mM glutamate, 150 mM glutamate, 250 mM glutamate, or 350 mM glutamate. Thawed cells were plated, washed at 24 hours to remove debris, and allowed to grow for a total of 96 hours, at which time they were fixed with 10% formol (15 minutes). Fixed cultures were stained with 0.2% crystal violet for 2 hours, destained in 4 changes of distilled water, dried and scanned on an Epson scanner at 1200 dpi (panel A). The density of stain from each culture, corresponding to cell yield, was quantified using ImageJ (NIH). The density of each culture was plotted in a bar graph and is shown in panel B. The stained 6-well plate containing each culture is shown in panel A, with insets showing a photograph from representative cultures visualized with a 4× objective after staining. The order of the samples in the plate shown in panel A is (left to right, top to bottom): media alone, media+7.5% DMSO, media+50 mM glutamate, media+150 mM glutamate, media+250 mM glutamate, media+350 mM glutamate. […]
# [6] = test system: mouse oocytes; details: 2M proline, in the presence of DMSO and ethylene glycol; cited from earlier work
# [7] = test system: RBCs; details: 1.5M proline, only in the presence of trehalose; cited from earlier work
compound,measurement,setting,value
"C[S+](C)[O-] [DMSO, Dimethylsulfoxide]",attachment of cells at 23 hours after plating thawed cells,[1]; 7.5% DMSO in OptiMEM or DMEM containing 10% serum,do attach
same,cryoprotection as measured by cell yield,"[2]; DMSO at 1%, saline, -80° C.",cryoprotective activity was apparent
same,cryoprotection as measured by cell yield,"[2]; DMSO at 3% and 10%, saline, -80° C.",capable cryoprotective agent
NCC(=O)O [glycine],increase in post-thaw recovery above that obtained with the control,[3],approximately 20%
NC(=O)CC[C@H](N)C(=O)O [glutamine],increase in post-thaw recovery above that obtained with the control,[3],approximately 20%
[Cl-].[Na+] [NaCl],cryoprotection by increased ionic strength,[4],does not provide any significant cryoprotection
N[C@@H](CCC(=O)O)C(=O)O [glutamate],post-thaw viability 23 hours after plating,[1]; 100 mM glutamate in OptiMEM,some extended post-thaw viability
same,post-thaw viability and attachment 23 hours after plating,[1]; 200 mM and 300 mM glutamate in OptiMEM,increased viability
same,entry into the growth cycle compared to cells in medium alone,[1]; 0.3M glutamate in OptiMEM,improved entry into the growth cycle
same,attachment of cells at 23 hours after plating thawed cells,[1]; 0.3M glutamate pH 7.2 as sole cryoprotectant,attachment at least to the level of either medium containing DMSO
same,post-thaw viability in initial survey of amino acids,"[1]; HEK293 cells, compared among several amino acids",highest degree of post-thaw viability
same,concentration required for cryoprotectant activity,[5],greater than 50 mM
same,cryoprotection as measured by cell yield,"[2]; glutamate as a sole agent, comparable to 3% and 10% DMSO",significant cryoprotection
O=C(O)[C@@H]1CCCN1 [proline],increase in post-thaw recovery above that obtained with the control,[3],approximately 20%
same,increase in implantation rate,[6],6-10%
same,hemolysis of frozen cells,[7],able to reduce hemolysis
